From US11236055B2 (Venenum Biodesign, LLC, priority 2016, dated 2022)

Columns and labels:
Type in all cases: cell-based
mouse TGR5 receptor [1] = target: T1, mouse TGR5 receptor (Mus musculus, UniProt Q80SS6); test: Mouse TGR5 cAMP production assay (luminescent, DiscoveRx cAMP XS+); settings: HEK293-EBNA cells overexpressing mouse TGR5, luminescent cAMP XS+; coded A-D; read-out: Mouse TGR5 Lum. cAMP Activity (EC50)
T1 construct: expressed in transfected cells; host or cells: HEK293-EBNA (293 c18, ATCC CRL10852), Hygromycin B selection
T1 sequence (Q80SS6 1-329): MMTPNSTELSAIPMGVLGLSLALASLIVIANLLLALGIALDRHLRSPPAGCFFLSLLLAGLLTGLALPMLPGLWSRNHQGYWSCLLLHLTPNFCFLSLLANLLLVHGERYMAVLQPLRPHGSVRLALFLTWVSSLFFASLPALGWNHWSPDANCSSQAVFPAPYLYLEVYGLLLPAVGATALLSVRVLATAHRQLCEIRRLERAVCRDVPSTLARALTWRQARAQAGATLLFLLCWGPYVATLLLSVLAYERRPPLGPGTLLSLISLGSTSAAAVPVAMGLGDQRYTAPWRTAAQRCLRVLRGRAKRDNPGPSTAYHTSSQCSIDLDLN
Text: Mouse TGR5 cAMP Production Assay
We evaluated compounds of the present invention for their ability to induce cAMP production in HEK-EBNA cells overexpressing the mouse TGR5 receptor. Human embryonic kidney cells (HEK293-EBNA) stably expressing mouse TGR5 receptor were established using the following procedure. Specifically, a commercially-obtained gene encoding mouse TGR5 (accession number BC116914) from Thermo Scientific (Waltham, Mass.) was cloned into an episomal expression vector. The resulting expression plasmid was then transfected into 293 c18 (ATCC® CRL10852™) cells, which express the Epstein-Barr virus nuclear antigen EBNA1 and can support the replication of episomal vectors. Selection for the plasmid was maintained with Hygromycin B. Cells were cultured and maintained in DMEM (Sigma; cat #6429) supplemented with 10% Fetal Bovine Serum, 1% penicillin/streptomycin, 2 mM L-alanine L-glutamine (GlutaMax), and 250 μg/mL Hygromycin.
Two cAMP production assays were developed.
1. Luminescent cAMP Production Assay
In this first cAMP production assay, the cAMP production was measured using DiscoveRx's cAMP XS+ kit following the manufacturer's recommended protocol.
Briefly, HEK293-EBNA cells stably overexpressing mouse TGR5 were harvested using non-enzymatic cell dissociation buffer (Sigma-Aldrich, St. Louis, Mo.), spun down, then resuspended in serum-free DMEM with 500 μM IBMX at a density of 1.25×10^6 cells/mL. 500 μL of cAMP antibody solution was added to […] of cell suspension and incubated at room temperature for 20 min.
Test compounds were serially diluted (half-log dilutions) in DMSO and then further diluted 1:50 in PBS, 10 mM HEPES buffer. 2 μL of serially diluted compound was added to a 384-well low volume plate (Greiner cat #784075) and centrifuged briefly. 2 μL of the cell/cAMP antibody mixture was then added to each compound-containing well and allowed to incubate at room temperature for one (1) hour. Following incubation, the XS+ kits' ED/Lysis/CL Substrate Working Solution was prepared following the manufacturer's recommended protocol and 4 μL was added to each well of the plate. The plate was then incubated for one (1) hour at room temperature. Following incubation, 4 μL of (Enzyme Acceptor) EA reagent was added to the plate and allowed to incubate overnight at room temperature. Luminescent signal was then detected using the Viewlux instrument (Perkin-Elmer, Waltham, Mass.).
In Table 33, EC50 values for both human and mouse cells were determined according to the TGR5 cAMP assays described above.

human TGR5 receptor = target: T2, human TGR5 receptor (Homo sapiens, UniProt Q8TDU6); test: Human TGR5 cAMP production assay; settings: human TGR5, luminescent cAMP assay; coded A-D; read-out: Human TGR5 Lum. cAMP Activity (EC50)
T2 construct: host or cells: CHO-K1 (hTGR5-CHO cells)
T2 sequence (Q8TDU6 1-330): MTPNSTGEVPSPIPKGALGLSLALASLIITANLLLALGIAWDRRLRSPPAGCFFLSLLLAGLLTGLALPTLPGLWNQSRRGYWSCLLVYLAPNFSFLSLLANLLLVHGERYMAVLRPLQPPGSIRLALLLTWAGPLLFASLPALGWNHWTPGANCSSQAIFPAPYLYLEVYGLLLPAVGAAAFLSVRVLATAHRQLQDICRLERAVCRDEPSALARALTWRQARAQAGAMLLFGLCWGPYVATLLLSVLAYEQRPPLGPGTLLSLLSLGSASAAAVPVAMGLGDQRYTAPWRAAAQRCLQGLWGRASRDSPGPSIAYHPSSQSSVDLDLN
Summary of the method: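 CHO-K1 cells stably expressing human TGR5, with IBMX and cAMP antibody, were exposed to half-log serially diluted compound for 1 h at room temperature. cAMP measured by enzyme-fragment complementation luminescence (XS+ kit) after overnight incubation; EC50 values reported.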

mouse TGR5 receptor [2] = target: T1, mouse TGR5 receptor; test: Mouse TGR5 cAMP production assay (HTRF, Cisbio cAMP HiRange); settings: HEK293-EBNA cells overexpressing mouse TGR5, HTRF cAMP HiRange; coded A-D
Summary of the method: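 cAMP read by HTRF competition after 1 h room-temperature compound exposure of mouse TGR5-overexpressing HEK293-EBNA cells. Cells were suspended in serum-free DMEM containing 500 μM IBMX; compounds ran as 12-point half-log dilutions in duplicate; EC50 derived.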

Row | SMILES | EC50 (mouse TGR5 receptor [1]) | EC50 (human TGR5 receptor) | EC50 (mouse TGR5 receptor [2])
1 | CCC(NS(=O)(=O)c1cccc(C(F)(F)F)c1)c1cccc(-c2ccncc2C)c1 (racemic) [Compound 5AU, (+/−)N-(1-(3-(3-methylpyridin-4-yl)phenyl)propyl)-3-(trifluoromethyl)benzenesulfonamide] | 100 to 999 nM | 100 to 999 nM | –
2 | Cc1noc(C)c1-c1cccc(CNS(=O)(=O)c2cccc(C(F)(F)F)c2)c1 [Compound 1, N-(3-(3,5-dimethylisoxazol-4-yl)benzyl)-3-(trifluoromethyl)benzenesulfonamide] | 1000 to 30000 nM | 1000 to 30000 nM | –
3 | Cc1noc(C)c1-c1cccc(CNS(=O)(=O)c2ccc(C(F)(F)F)cc2)c1 [Compound 1AA] | > 30000 nM | 1000 to 30000 nM | –
4 | Cc1noc(C)c1-c1cccc(CNS(=O)(=O)c2ccc(Cl)cc2)c1 [Compound 1AB] | > 30000 nM | 1000 to 30000 nM | –
5 | Cc1noc(C)c1-c1cccc(C(C)(C)NS(=O)(=O)c2cccc(C(F)(F)F)c2)c1 [Compound 1AC] | 1000 to 30000 nM | 1000 to 30000 nM | –
6 | CC(C)(NS(=O)(=O)c1cccc(C(F)(F)F)c1)c1cccc(-c2ccncc2)c1 [Compound 1AD] | 1000 to 30000 nM | < 100 nM | –
7 | COc1cccc(S(=O)(=O)N2CCN(C(=O)CCC(=O)O)CC2c2cccc(-c3ccncc3C)c2)c1 (stereo not shown) [Compound 46AJ, 4-(4-((3-methoxyphenyl)sulfonyl)-3-(3-(3-methylpyridin-4-yl)phenyl)piperazin-1-yl)-4-oxobutanoic acid] | – | 1000 to 30000 nM | 100 to 999 nM
8 | Cc1cnccc1-c1cccc(C2CN(C(=O)CCC(=O)O)CCN2S(=O)(=O)c2cccc(Cl)c2Cl)c1 (stereo not shown) [Compound 46AK, 4-(4-((2,3-dichlorophenyl)sulfonyl)-3-(3-(3-methylpyridin-4-yl)phenyl)piperazin-1-yl)-4-oxobutanoic acid] | – | 100 to 999 nM | < 100 nM
9 | Cc1cnccc1-c1cccc(C2CN(C(=O)CCC(=O)O)CCN2S(=O)(=O)c2ccc(F)cc2C(F)(F)F)c1 (stereo not shown) [Compound 46AL] | – | 100 to 999 nM | 100 to 999 nM
10 | Cc1cnccc1-c1cccc(C2CN(C(=O)CS(=O)(=O)O)CCN2S(=O)(=O)c2ccccc2C)c1 (stereo not shown) [Compound 49AA, 2-(3-(3-(3-methylpyridin-4-yl)phenyl)-4-(o-tolylsulfonyl)piperazin-1-yl)-2-oxoethanesulfonic acid] | – | 100 to 999 nM | < 100 nM
11 | COc1cccc(S(=O)(=O)N2CCN(C(=O)CS(=O)(=O)O)CC2c2cccc(-c3ccncc3C)c2)c1 (stereo not shown) [Compound 49AB, 2-(4-((3-methoxyphenyl)sulfonyl)-3-(3-(3-methylpyridin-4-yl)phenyl)piperazin-1-yl)-2-oxoethanesulfonic acid] | – | 100 to 999 nM | < 100 nM
12 | Cc1cnccc1-c1cccc(C2CN(C(=O)CS(=O)(=O)O)CCN2S(=O)(=O)c2cccc(Cl)c2Cl)c1 (stereo not shown) [Compound 49AC, 2-(4-((2,3-dichlorophenyl)sulfonyl)-3-(3-(3-methylpyridin-4-yl)phenyl)piperazin-1-yl)-2-oxoethanesulfonic acid] | – | < 100 nM | < 100 nM
13 | Cc1c(Cl)cccc1S(=O)(=O)N1CCN(C(=O)CS(=O)(=O)O)CC1c1cccc(-c2ccncc2)c1 (stereo not shown) [Compound 49AD, 2-(4-((3-chloro-2-methylphenyl)sulfonyl)-3-(3-(pyridin-4-yl)phenyl)piperazin-1-yl)-2-oxoethanesulfonic acid] | – | 100 to 999 nM | 100 to 999 nM
14 | Cc1c(Cl)cccc1S(=O)(=O)N1CCN(C(=O)CS(=O)(=O)O)CC1c1cccc(-c2ccncc2Cl)c1 (stereo not shown) [Compound 49AE, 2-(4-((3-chloro-2-methylphenyl)sulfonyl)-3-(3-(3-chloropyridin-4-yl)phenyl)piperazin-1-yl)-2-oxoethanesulfonic acid] | – | 100 to 999 nM | < 100 nM
15 | COc1cnccc1-c1cccc(C2CN(C(=O)CS(=O)(=O)O)CCN2S(=O)(=O)c2cccc(Cl)c2C)c1 (stereo not shown) [Compound 49AF, 2-(4-((3-chloro-2-methylphenyl)sulfonyl)-3-(3-(3-methoxypyridin-4-yl)phenyl)piperazin-1-yl)-2-oxoethanesulfonic acid] | – | < 100 nM | < 100 nM
16 | Cc1cnccc1-c1cccc(C2CN(C(=O)CS(=O)(=O)O)CCN2S(=O)(=O)c2ccccc2C(F)(F)F)c1 (stereo not shown) [Compound 49AG, 2-(3-(3-(3-methylpyridin-4-yl)phenyl)-4-((2-(trifluoromethyl)phenyl)sulfonyl)piperazin-1-yl)-2-oxoethanesulfonic acid] | – | 100 to 999 nM | < 100 nM
17 | CCc1cnccc1-c1cccc(C2CN(C(=O)CP(=O)(O)O)CCN2S(=O)(=O)c2cccc(Cl)c2C)c1 (stereo not shown) [Compound 50] | – | 100 to 999 nM | < 100 nM
18 | CCc1cnccc1-c1cccc(C2CN(CC(=O)O)CCN2S(=O)(=O)c2cccc(Cl)c2C)c1 (stereo not shown) [Compound 51, 2-(4-((3-Chloro-2-methylphenyl)sulfonyl)-3-(3-(3-ethylpyridin-4-yl)phenyl)piperazin-1-yl)acetic acid] | – | 100 to 999 nM | 100 to 999 nM
19 | Cc1cnccc1-c1cccc(C2CN(CCCC(=O)O)CCN2S(=O)(=O)c2cccc(Cl)c2C)c1 (stereo not shown) [Compound 52, 4-(4-((3-chloro-2-methylphenyl)sulfonyl)-3-(3-(3-methylpyridin-4-yl)phenyl)piperazin-1-yl)butanoic acid] | – | 100 to 999 nM | 100 to 999 nM
20 | Cc1cnccc1-c1cccc(C2CN(CCCC(=O)NCCS(=O)(=O)O)CCN2S(=O)(=O)c2cccc(Cl)c2C)c1 (stereo not shown) [Compound 53AA, 2-(4-(4-((3-chloro-2-methylphenyl)sulfonyl)-3-(3-(3-methylpyridin-4-yl)phenyl)piperazin-1-yl)butanamido)ethanesulfonic acid] | – | 100 to 999 nM | < 100 nM
21 | CCc1cnccc1-c1cccc(C2CN(C(=O)CCC(=O)NCCS(=O)(=O)O)CCN2S(=O)(=O)c2cccc(Cl)c2C)c1 (stereo not shown) [Compound 53AB, 2-(4-(4-((3-chloro-2-methylphenyl)sulfonyl)-3-(3-(3-ethylpyridin-4-yl)phenyl)piperazin-1-yl)-4-oxobutanamido)ethanesulfonic acid] | – | 100 to 999 nM | < 100 nM
22 | CCc1cnccc1-c1cccc(C2CN(C(=O)CCC(=O)NCCCS(=O)(=O)O)CCN2S(=O)(=O)c2cccc(Cl)c2C)c1 (stereo not shown) [Compound 53AC, 3-(4-(4-((3-chloro-2-methylphenyl)sulfonyl)-3-(3-(3-ethylpyridin-4-yl)phenyl)piperazin-1-yl)-4-oxobutanamido)propane-1-sulfonic acid] | – | 100 to 999 nM | < 100 nM
23 | Cc1cnccc1-c1cccc(C2CCCCN2S(=O)(=O)c2ccccc2C(F)(F)F)c1 (stereo not shown) [Compound 54, 3-methyl-4-(3-(1-((2-(trifluoromethyl)phenyl)sulfonyl)piperidin-2-yl)phenyl)pyridine] | – | < 100 nM | 100 to 999 nM
